The molecules below were run against Angiotensin II receptor (Oryctolagus cuniculus) (assay: Tested in vitro for angiotensin II induced antagonistic activity in rabbit aorta, expressed as pA2).
A pA2 of 8.63 was found for `CCCN(Cc1ccc(-c2ccccc2-c2nn[nH]n2)cc1)c1nc(C)c(C(=O)O)s1` in this work.
A pA2 of 8.8 was found for `CCCCN(Cc1ccc(-c2ccccc2-c2nn[nH]n2)cc1)c1ncc(C(=O)O)s1` in this work.
A pA2 of 8.2 was found for `CCCCN(Cc1ccc(-c2ccccc2-c2nn[nH]n2)cc1)c1scnc1C(=O)O` in this work.
A pA2 of 8.6 was found for `CCCCN(Cc1ccc(-c2ccccc2-c2nn[nH]n2)cc1)c1nnn(C)c1C(=O)O` in this work.
A pA2 of 7.56 was found for `CCCN(Cc1ccc(-c2ccccc2-c2nn[nH]n2)cc1)c1nc(C(F)(F)F)c(C(=O)O)s1` in this work.
A pA2 of 6.46 was found for `CCCCN(Cc1ccc(-c2ccccc2-c2nn[nH]n2)cc1)c1c(C(=O)O)ncn1C` in this work.
A pA2 of 7.87 was found for `CCCN(Cc1ccc(-c2ccccc2-c2nn[nH]n2)cc1)c1ncc(C(=O)O)s1` in this work.
A pA2 of 8.86 was found for `CCCCN(Cc1ccc(-c2ccccc2-c2nn[nH]n2)cc1)c1nnn(CCCC)c1C(=O)O` in this work.
A pA2 of 8.36 was found for `CCCCN(Cc1ccc(-c2ccccc2-c2nn[nH]n2)cc1)c1snnc1C(=O)O` in this work.
A pA2 of less than 6 was found for `CCCc1nc(NCc2ccc(-c3ccccc3-c3nn[nH]n3)cc2)sc1C(=O)O` in this work.
A pA2 of less than 7 was found for `CCCCN(Cc1ccc(-c2ccccc2-c2nn[nH]n2)cc1)c1c(C(=O)O)cnn1C` in this work.
A pA2 of less than 6 was found for `O=C(O)c1cnc(NCc2ccc(-c3ccccc3-c3nn[nH]n3)cc2)s1` in this work.
A pA2 of 7.34 was found for `CCCCCCN(Cc1ccc(-c2ccccc2-c2nn[nH]n2)cc1)c1ncc(C(=O)O)s1` in this work.
A pA2 of 7.94 was found for `CCCN(Cc1ccc(-c2ccccc2-c2nn[nH]n2)cc1)c1nn(C)cc1C(=O)O` in this work.
A pA2 of 7.43 was found for `CCCc1nc(N(CCC)Cc2ccc(-c3ccccc3-c3nn[nH]n3)cc2)sc1C(=O)O` in this work.
A pA2 of 9 was found for `CCCN(Cc1ccc(-c2ccccc2-c2nn[nH]n2)cc1)c1nsnc1C(=O)O` in this work.
